From ChEMBL document CHEMBL1909046, “DrugMatrix in vitro pharmacology data” come the findings set out here.

Assay [1] deals with T1, 5-hydroxytryptamine receptor 2C (Homo sapiens, UniProt P28335).
T1 sequence (P28335 whole entry): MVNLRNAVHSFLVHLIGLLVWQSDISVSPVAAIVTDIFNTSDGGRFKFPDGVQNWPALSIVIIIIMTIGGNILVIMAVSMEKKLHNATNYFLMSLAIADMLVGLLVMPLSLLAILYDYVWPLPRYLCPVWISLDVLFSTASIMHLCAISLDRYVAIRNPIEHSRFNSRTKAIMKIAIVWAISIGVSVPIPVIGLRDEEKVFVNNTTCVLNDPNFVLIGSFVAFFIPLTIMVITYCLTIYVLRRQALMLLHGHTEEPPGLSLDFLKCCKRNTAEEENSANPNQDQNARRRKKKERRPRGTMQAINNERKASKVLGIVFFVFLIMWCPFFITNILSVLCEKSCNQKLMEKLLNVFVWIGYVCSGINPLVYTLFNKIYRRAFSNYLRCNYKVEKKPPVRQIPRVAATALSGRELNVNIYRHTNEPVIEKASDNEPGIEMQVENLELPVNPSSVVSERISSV
Nature of the assay: DRUGMATRIX: Serotonin (5-Hydroxytryptamine) 5-HT2C radioligand binding (ligand: [3H] Mesulergine). The assay is classed as cell membranes, CHO-K1, Membrane. As to conditions: Not Active = under 50% inhibition at 10 µM.

Assay [2] addresses T2, Caspase-1 (Homo sapiens, UniProt P29466).
T2 sequence (P29466 whole entry): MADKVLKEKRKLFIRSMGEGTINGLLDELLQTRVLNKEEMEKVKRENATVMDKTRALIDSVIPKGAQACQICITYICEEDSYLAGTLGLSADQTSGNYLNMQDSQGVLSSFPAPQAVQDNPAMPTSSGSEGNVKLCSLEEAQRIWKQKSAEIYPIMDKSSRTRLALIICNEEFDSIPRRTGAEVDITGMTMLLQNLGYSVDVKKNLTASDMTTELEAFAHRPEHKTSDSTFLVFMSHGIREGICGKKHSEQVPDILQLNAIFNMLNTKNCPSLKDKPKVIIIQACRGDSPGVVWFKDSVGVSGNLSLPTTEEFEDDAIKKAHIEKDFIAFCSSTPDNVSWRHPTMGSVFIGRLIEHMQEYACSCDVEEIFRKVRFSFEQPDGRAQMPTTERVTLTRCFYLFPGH
On the set-up: species or system Escherichia coli.

Assay [3] deals with T3, Thromboxane-A synthase (Homo sapiens, UniProt P24557).
T3 sequence (P24557 whole entry): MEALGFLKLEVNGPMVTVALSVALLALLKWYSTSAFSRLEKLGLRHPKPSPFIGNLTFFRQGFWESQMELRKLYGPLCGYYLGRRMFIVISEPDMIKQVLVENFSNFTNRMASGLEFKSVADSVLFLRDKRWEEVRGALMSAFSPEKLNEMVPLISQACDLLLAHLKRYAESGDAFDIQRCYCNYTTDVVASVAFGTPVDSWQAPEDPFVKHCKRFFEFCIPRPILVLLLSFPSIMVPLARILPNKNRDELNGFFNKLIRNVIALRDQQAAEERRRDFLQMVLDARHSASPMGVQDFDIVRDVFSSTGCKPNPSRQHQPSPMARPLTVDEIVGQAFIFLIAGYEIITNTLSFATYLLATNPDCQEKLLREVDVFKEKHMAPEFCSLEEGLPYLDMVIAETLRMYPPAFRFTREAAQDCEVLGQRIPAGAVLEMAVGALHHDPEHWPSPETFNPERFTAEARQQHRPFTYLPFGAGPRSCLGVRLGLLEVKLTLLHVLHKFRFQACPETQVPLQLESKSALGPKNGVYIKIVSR
The assay is described as follows: biochemical. The assay is classed as tissue-based, Platelet.

Assay [4] addresses Adenosine receptor A2a (Homo sapiens, UniProt P29274). The assay is described as follows: DRUGMATRIX: Adenosine A2A radioligand binding (ligand: […]). The following applies: hek293; Not Active = under 50% inhibition at 10 µM. The assay is classed as cell membranes, HEK293, Membrane.
The target in assay [5] is Cytochrome P450 2D6 (Homo sapiens, UniProt P10635). Note: in other assays of this panel Not Active means under 50% inhibition at 10 µM.
Sequence of Cytochrome P450 2D6 (P10635 whole entry): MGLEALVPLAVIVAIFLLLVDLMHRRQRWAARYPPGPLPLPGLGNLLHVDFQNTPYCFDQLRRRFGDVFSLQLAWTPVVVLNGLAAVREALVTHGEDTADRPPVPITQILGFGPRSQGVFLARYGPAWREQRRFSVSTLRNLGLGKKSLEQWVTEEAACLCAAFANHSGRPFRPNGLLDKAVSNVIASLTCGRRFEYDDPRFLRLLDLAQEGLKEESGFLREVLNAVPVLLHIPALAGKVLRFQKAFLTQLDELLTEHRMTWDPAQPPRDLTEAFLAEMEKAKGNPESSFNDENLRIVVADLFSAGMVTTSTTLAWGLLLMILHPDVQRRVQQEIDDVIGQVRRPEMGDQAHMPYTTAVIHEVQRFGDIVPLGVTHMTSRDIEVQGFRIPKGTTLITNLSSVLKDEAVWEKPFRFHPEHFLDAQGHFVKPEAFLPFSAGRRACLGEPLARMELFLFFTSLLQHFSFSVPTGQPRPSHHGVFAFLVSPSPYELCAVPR
For assay [6], the target named is T4, Androgen receptor (Rattus norvegicus, UniProt P15207). Note: in other assays of this panel Not Active means under 50% inhibition at 10 µM.
T4 sequence (P15207 whole entry): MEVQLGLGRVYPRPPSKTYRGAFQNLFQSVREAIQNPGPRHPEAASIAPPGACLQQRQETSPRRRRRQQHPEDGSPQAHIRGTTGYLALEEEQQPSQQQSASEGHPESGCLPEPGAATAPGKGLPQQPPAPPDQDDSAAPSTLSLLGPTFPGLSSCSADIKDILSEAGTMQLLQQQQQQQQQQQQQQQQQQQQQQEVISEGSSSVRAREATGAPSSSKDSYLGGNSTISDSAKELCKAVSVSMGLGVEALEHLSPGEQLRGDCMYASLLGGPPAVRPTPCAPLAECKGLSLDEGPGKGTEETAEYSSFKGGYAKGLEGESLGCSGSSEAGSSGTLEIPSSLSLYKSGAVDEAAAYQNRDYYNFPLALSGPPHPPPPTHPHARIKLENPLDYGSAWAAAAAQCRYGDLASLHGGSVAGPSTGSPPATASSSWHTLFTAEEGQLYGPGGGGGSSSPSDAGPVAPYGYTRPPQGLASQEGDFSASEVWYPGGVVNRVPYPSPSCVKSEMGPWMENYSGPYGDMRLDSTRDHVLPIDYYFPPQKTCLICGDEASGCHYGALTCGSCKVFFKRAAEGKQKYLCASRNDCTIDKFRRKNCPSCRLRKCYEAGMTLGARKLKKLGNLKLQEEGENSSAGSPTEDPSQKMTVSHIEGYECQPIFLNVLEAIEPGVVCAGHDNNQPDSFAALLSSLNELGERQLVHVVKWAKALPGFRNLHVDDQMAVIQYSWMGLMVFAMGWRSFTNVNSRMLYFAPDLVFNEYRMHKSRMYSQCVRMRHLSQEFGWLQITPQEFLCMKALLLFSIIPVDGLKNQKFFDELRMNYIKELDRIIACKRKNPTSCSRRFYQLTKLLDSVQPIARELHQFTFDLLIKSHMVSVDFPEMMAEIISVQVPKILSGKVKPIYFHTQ

Sequence of Adenosine receptor A2a (P29274 whole entry): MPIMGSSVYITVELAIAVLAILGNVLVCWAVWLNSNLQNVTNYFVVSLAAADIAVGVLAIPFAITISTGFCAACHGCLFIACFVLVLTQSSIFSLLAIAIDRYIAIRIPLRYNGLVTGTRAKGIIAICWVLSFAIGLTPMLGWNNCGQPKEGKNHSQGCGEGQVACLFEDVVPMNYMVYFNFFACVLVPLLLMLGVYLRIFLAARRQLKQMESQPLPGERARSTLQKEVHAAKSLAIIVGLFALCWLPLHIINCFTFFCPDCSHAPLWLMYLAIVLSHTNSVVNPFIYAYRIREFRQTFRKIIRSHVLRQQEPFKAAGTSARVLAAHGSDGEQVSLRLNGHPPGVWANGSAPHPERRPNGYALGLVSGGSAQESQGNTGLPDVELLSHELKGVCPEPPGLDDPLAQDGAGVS

Regarding `c1ccc(Cn2ccnc2)cc1`, the half-maximal inhibitory concentration (IC50) result in assay [1] (cho-k1) was “Not Active”; in assay [2] it was “Not Active”; in assay [3] (read-out: IC50), 602 nM; in assay [4] it was “Not Active”; in assay [5], 2000 nM; in assay [6] it was “Not Active”.
Regarding `CN(Cc1cc(Br)cc(Br)c1N)C1CCCCC1` [BROMHEXINE], the half-inhibitory concentration (IC50) result in assay [1] (cho-k1) is “Not Active”; in assay [2], “Not Active”; in assay [3] (platelet), “Not Active”; in assay [4], “Not Active”; in assay [5] it was 196 nM.
Consider `CC(N)Cc1c[nH]c2ccc(OCc3cccs3)cc12` (stereo not given) [BW-723C86], for which the IC50 in assay [1] (read-out: IC50) was 204 nM; in assay [2] it was “Not Active”; in assay [3] (platelet) it was “Not Active”; in assay [4] it was “Not Active”; in assay [5] it was 2770 nM; in assay [6], “Not Active”. Also, the inhibition constant (Ki) in assay [1] (read-out: Ki) was 107 nM.
Take `CCCCCCNC(=O)n1cc(F)c(=O)[nH]c1=O` [CARMOFUR]: the IC50 result in assay [1] (cho-k1) was “Not Active”; in assay [2], “Not Active”; in assay [3] (platelet) it was “Not Active”; in assay [4], “Not Active”; in assay [5] it was 5000 nM.
Turning to `Cc1cc(C(C)(C)C)c(O)c(C)c1CC1=NCCN1` [OXYMETAZOLINE], the IC50 in assay [1] (read-out: IC50) is 578 nM; in assay [2], “Not Active”; in assay [3] (platelet) it was “Not Active”; in assay [4], “Not Active”; in assay [5], 200 nM; in assay [6] it was “Not Active”. For the same compound, the inhibition constant Ki in assay [1] (read-out: Ki) stood at 303 nM.
On to CHROMIC CHLORIDE, for which the 50% inhibitory concentration (IC50) result in assay [1] (cho-k1), in assay [2], in assay [3] (platelet), in assay [4] and in assay [6] was “Not Active” in each case. Moreover, the inhibition constant (Ki) entry in assay [1] (cho-k1), in assay [2], in assay [3] (platelet), in assay [4] and in assay [6] was “Not Active” in each case.
Consider COPPER(II) OXIDE, for which the IC50 result in assay [1] (cho-k1), in assay [2], in assay [3] (platelet), in assay [4] and in assay [6] was “Not Active” throughout. Moreover, the inhibition constant (Ki) result in assay [1] (cho-k1), in assay [2], in assay [3] (platelet), in assay [4] and in assay [6] was “Not Active” throughout.
Take POVIDONE: the IC50 entry in assay [1] (cho-k1), in assay [2], in assay [3] (platelet), in assay [4] and in assay [6] was “Not Active” each time. Also, the inhibition constant Ki result in assay [1] (cho-k1), in assay [2], in assay [3] (platelet), in assay [4] and in assay [6] was “Not Active” in each case.

For orientation: IC50 means the midpoint of a concentration-inhibition curve. The Ki is a measure of affinity in units of concentration, obtained from inhibition or displacement.
